The values that follow come from PubChem BioAssay (NCI).

Some test systems named below: SNB-75 CNS; HS 578T breast; HL-60(TB) leukemia; MCF7 breast; DU-145 prostate; A549 NSCLC; BT-549 breast; HCC-2998 colon; KM12 colon.
Holding throughout (assay): NCI anticancer screen, dose series, 48 h

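Five compound concentrations were applied to cells in 96-well plates for 48 hours; endpoints were derived by simple linear interpolation of the resulting dose-response curve. TGI: total growth inhibition.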

For `O=c1[nH]c2ccc(C(F)(F)F)cc2nc1-c1ccccc1`, the TGI with SNB-75 CNS, in the experiment with HS 578T breast, in the experiment on HL-60(TB) leukemia, in the experiment on MCF7 breast, in the experiment on DU-145 prostate and in the experiment on A549 NSCLC was above 100 µM throughout. The TGI in the experiment with BT-549 breast and in the experiment with HCC-2998 colon was above 100 µM in each case.

For the molecule `Brc1cccc(/C=C/CN2CCN(CCOC(c3ccccc3)c3ccccc3)CC2)c1`, the TGI turned out to be 20.2 µM in the experiment with SNB-75 CNS; 52 µM in the experiment on HS 578T breast; 27.9 µM in the experiment with HL-60(TB) leukemia; 29.5 µM in the experiment on MCF7 breast; 27.4 µM in the experiment on DU-145 prostate; 31.3 µM with KM12 colon. The TGI was found to be 31.6 µM with A549 NSCLC, 31.1 µM in the experiment with BT-549 breast and 21.3 µM with HCC-2998 colon.

With `CCOC(=O)/C(C#N)=C/c1ccc2c(-c3c(OCC)ccc4cc(/C=C(\C#N)C(=O)OCC)ccc34)c(OCC)ccc2c1`, the TGI in the experiment on SNB-75 CNS, in the experiment on HS 578T breast, in the experiment on HL-60(TB) leukemia, in the experiment with MCF7 breast, in the experiment on DU-145 prostate and in the experiment with KM12 colon was above 100 µM each time. Besides, the TGI in the experiment with A549 NSCLC, in the experiment on BT-549 breast and in the experiment on HCC-2998 colon was above 100 µM each time.

As to `C/C(=N/NC(=S)Nc1ccccc1Cl)c1ccccn1`, the TGI was 30.5 µM with SNB-75 CNS; 40.2 µM with HS 578T breast; below 0.0305 µM with HL-60(TB) leukemia; 0.27 µM with MCF7 breast; 12.8 µM in the experiment on DU-145 prostate; 18.7 µM in the experiment with KM12 colon. Further, the TGI in the experiment on A549 NSCLC amounted to 29.6 µM; with BT-549 breast, 19.9 µM; in the experiment on HCC-2998 colon it was 18.1 µM.

As for `CCN(CC)c1ccc(/C=C(\C#N)c2nc(N)nc(N3N=C(C)CC3(C)C)n2)cc1`, the TGI in the experiment with SNB-75 CNS was 28.8 µM; in the experiment on HS 578T breast, 11.4 µM; with HL-60(TB) leukemia, above 100 µM; with MCF7 breast, above 100 µM; in the experiment with DU-145 prostate it was 29.3 µM; with KM12 colon, above 100 µM. Moreover, the TGI was 32.3 µM with A549 NSCLC, above 100 µM in the experiment on BT-549 breast and 79.1 µM with HCC-2998 colon.

As for `S=c1ssc2c3ssc(=S)c3n(Cc3ccccc3)c12`, the TGI with SNB-75 CNS, in the experiment with HS 578T breast, in the experiment on HL-60(TB) leukemia, in the experiment with MCF7 breast, with DU-145 prostate and in the experiment on KM12 colon was above 100 µM in each case. The TGI with A549 NSCLC, in the experiment with BT-549 breast and with HCC-2998 colon was above 100 µM in each case.

As for `Cc1ccc(S(=O)ON2CCC(C(=O)O)(c3ccccc3)CC2)cc1` (stereo not drawn), the TGI in the experiment on SNB-75 CNS, in the experiment with HS 578T breast, in the experiment with HL-60(TB) leukemia, in the experiment with MCF7 breast, in the experiment with DU-145 prostate and with KM12 colon was above 100 µM each time. In addition, the TGI in the experiment with A549 NSCLC, in the experiment with BT-549 breast and with HCC-2998 colon was above 100 µM in each case.

Turning to `CC(C)(C)OC(=O)[N+](=N)C(=O)C1CCC(=O)N1C(=O)OCc1ccccc1` (stereo not drawn), the TGI in the experiment on SNB-75 CNS, in the experiment on HS 578T breast, in the experiment with HL-60(TB) leukemia, with MCF7 breast, with DU-145 prostate and in the experiment with KM12 colon was above 100 µM each time. Moreover, the TGI in the experiment with A549 NSCLC, with BT-549 breast and in the experiment on HCC-2998 colon was above 100 µM in each case.

With `CCCCCCCCC[C@@H]1C[C@@H]2CCC3C(C(=O)OC)=C(C)NC(=N1)N32` (stereo partly drawn), the TGI in the experiment with SNB-75 CNS turned out to be 19.8 µM; in the experiment with HS 578T breast it was 34.7 µM; in the experiment on HL-60(TB) leukemia, 26.9 µM; with MCF7 breast it was 15.9 µM; in the experiment with DU-145 prostate, 21.9 µM; with KM12 colon, 14 µM. The TGI in the experiment on A549 NSCLC was determined as 32.6 µM; in the experiment on BT-549 breast it was 24.4 µM; with HCC-2998 colon, 8.53 µM.

As to `CSC(SC)=C1CC(=O)Nc2ccccc2C1=O`, the TGI with HS 578T breast, in the experiment with HL-60(TB) leukemia, in the experiment on MCF7 breast, in the experiment with DU-145 prostate, in the experiment with KM12 colon and in the experiment with A549 NSCLC was above 100 µM throughout. In addition, the TGI in the experiment on BT-549 breast and in the experiment with HCC-2998 colon was above 100 µM in each case.

As to `COc1c(CC=C(C)C)c(O)c(C(CC(C)C)c2c(O)c(C(C)=O)c(O)c3c2OC(C(C)(C)O)C3)c(O)c1C(C)=O` (stereo not drawn), the TGI in the experiment on HS 578T breast is above 12.5 µM; with HL-60(TB) leukemia it was 6.57 µM; in the experiment on MCF7 breast, above 12.5 µM; with DU-145 prostate, above 12.5 µM; in the experiment on A549 NSCLC it was above 12.5 µM; in the experiment on BT-549 breast, 10.6 µM. Further, the TGI in the experiment with HCC-2998 colon is above 12.5 µM.

Regarding `Cc1ccc(/C=C2\CN(C)CC3=C2OC(N)=C(C#N)C3c2ccc(C)cc2)cc1` (stereo not drawn), the TGI is above 100 µM in the experiment with HS 578T breast; above 100 µM in the experiment with HL-60(TB) leukemia; 47.8 µM in the experiment on MCF7 breast; 44.7 µM in the experiment on DU-145 prostate; 39.3 µM in the experiment with KM12 colon; 49.4 µM in the experiment on A549 NSCLC. Besides, the TGI is 40.1 µM with BT-549 breast and 37.2 µM with HCC-2998 colon.
